Like-named read-outs stand apart in the source and are kept apart here. Values belong to the molecule of their own block, whether it stands above or below them. Bridge positions count the residues as written; N and C are the ends. Square brackets hold non-standard residues; d marks the D form. Peptide text beside a SMILES is read from it. R8 = C=CCCCCCC[C@@](C)(N)C(=O)O; S5 = C=CCCC[C@](C)(N)C(=O)O
Key:
[1] = target: Mdm2 (human (endogenous in OCI/AML-2)) (UniProt Q00987); assay: cellular thermal shift assay (CETSA); lysate CETSA: peptides at 10 uM added to 5 mg/ml AML2 cell lysate (kinase buffer: 25 mM Tris pH 7.4, 10 mM MgCl2, 2 mM DTT), 15 min at room temperature, heated 2 min, soluble protein by Western blot; dTm50 against the control
Chain of Mdm2 (human (endogenous in OCI/AML-2)) (Q00987 whole entry): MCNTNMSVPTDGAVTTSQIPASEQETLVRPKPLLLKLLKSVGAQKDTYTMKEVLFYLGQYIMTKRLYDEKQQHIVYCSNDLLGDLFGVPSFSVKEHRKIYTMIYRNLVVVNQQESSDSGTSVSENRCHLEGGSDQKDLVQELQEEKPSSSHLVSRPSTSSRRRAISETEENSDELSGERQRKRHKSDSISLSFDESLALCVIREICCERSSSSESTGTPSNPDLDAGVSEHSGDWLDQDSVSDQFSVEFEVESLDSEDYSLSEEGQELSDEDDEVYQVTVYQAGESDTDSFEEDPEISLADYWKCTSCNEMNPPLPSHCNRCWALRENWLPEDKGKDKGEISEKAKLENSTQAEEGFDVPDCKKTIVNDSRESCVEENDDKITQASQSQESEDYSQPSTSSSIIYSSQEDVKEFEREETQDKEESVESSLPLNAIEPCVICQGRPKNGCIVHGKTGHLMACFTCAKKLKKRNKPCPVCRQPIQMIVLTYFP

[2] = target: Mdm4 (human (endogenous in OCI/AML-2)) (UniProt O15151); assay: as above
[3] = target: Mdm2 (human (endogenous in OCI/AML-2)) (UniProt Q00987); assay: cellular thermal shift assay (CETSA); whole cell CETSA: OCI/AML-2 cells pre-treated with 10 uM MG132 for 1 h, then 25 uM Staplin-2 for 4 h, intact cells heated 2 min, lysed by freeze/thaw, soluble protein by Western blot; compared with the lysate CETSA
[4] = target: Mdm4 (human (endogenous in OCI/AML-2)) (UniProt O15151); assay: as above
[5] = system: p53 responsive β-galactosidase reporter in T22 cells; assay: T22 p53 β-galactosidase based reporter assay; assay type: cell-based; settings: 18 h treatment, text points to Fig. 2a in Brown et al., 2013
Mdm4 [6] = target: T1, Mdm4 (Homo sapiens, UniProt O15151); set-up: method as in 3 sources, ref 10 = [10]; PMID 23214419; doi:10.1021/cb3005148; Brown C. J. et al. Stapled Peptides with Improved Potency and Specificity That Activate p53 . ACS Chem. Biol . 8 , 506 – 512 ( 2013 ). 23214419 10.1021/cb3005148 ||| ref 11 = [11]; PMID 23946421; doi:10.1073/pnas; Chang Y. S. et al. Stapled α−helical peptide drug development: A potent dual inhibitor of MDM2 and MDMX for p53-dependent cancer therapy . Proc. Natl. Acad. Sci . 201303002 (2013). 10.1073/pnas .13030 ||| ref 6 = [6]; PMID 14704432; doi:10.1126/science.1092472; Vassilev L. T. et al. In vivo activation of the p53 pathway by small-molecule antagonists of MDM2 . Science 303 , 844 – 848 ( 2004 ). 14704432 10.1126/science.1092472; settings: competition assay, cited from earlier work
T1 sequence (O15151 1-490): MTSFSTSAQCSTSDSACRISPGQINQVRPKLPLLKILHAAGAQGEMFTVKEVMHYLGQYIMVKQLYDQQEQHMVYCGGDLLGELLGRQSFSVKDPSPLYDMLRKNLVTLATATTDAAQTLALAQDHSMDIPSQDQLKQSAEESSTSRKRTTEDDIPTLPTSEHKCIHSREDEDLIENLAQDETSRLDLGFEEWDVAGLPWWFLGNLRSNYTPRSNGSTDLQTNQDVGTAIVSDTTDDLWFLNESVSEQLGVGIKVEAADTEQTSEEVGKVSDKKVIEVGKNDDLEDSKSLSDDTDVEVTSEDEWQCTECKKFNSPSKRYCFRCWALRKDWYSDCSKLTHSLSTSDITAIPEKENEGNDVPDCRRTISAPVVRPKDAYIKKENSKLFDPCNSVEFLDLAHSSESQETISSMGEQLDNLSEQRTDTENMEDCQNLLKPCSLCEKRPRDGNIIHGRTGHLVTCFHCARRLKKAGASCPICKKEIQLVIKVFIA

Mdm2 [7] = target: T2, Mdm2 (Homo sapiens, UniProt Q00987); set-up: method as in 3 sources, ref 10 = [10]; PMID 23214419; doi:10.1021/cb3005148; Brown C. J. et al. Stapled Peptides with Improved Potency and Specificity That Activate p53 . ACS Chem. Biol . 8 , 506 – 512 ( 2013 ). 23214419 10.1021/cb3005148 ||| ref 11 = [11]; PMID 23946421; doi:10.1073/pnas; Chang Y. S. et al. Stapled α−helical peptide drug development: A potent dual inhibitor of MDM2 and MDMX for p53-dependent cancer therapy . Proc. Natl. Acad. Sci . 201303002 (2013). 10.1073/pnas .13030 ||| ref 6 = [6]; PMID 14704432; doi:10.1126/science.1092472; Vassilev L. T. et al. In vivo activation of the p53 pathway by small-molecule antagonists of MDM2 . Science 303 , 844 – 848 ( 2004 ). 14704432 10.1126/science.1092472; settings: competition assay, cited from earlier work
T2 sequence (Q00987 whole entry): as the sequence (Q00987 whole entry) above

Mdm2 [8] = target: T2, Mdm2; assay: Whole cell CETSA, Mdm2
Mdm4 [9] = target: T1, Mdm4; assay: Whole cell CETSA, Mdm4; settings: whole cells 25 μM
Mdm2 [10] = target: T2, Mdm2; assay: Lysate CETSA, thermal stabilisation of Mdm2 in AML2 cell lysates; assay type: binding; set-up: endogenous in cells; host or cells: OCI/AML-2 (AML2) cells, pre-treated with MG132; settings: Fig. 1a, 10 μM in 5 mg/ml AML2 cell lysates, three independent replicates
Mdm4 [11] = target: T1, Mdm4; assay: Lysate CETSA, thermal stabilisation of Mdm4 in AML2 cell lysates; assay type: binding; set-up: endogenous in cells; host or cells: OCI/AML-2 (AML2) cells, pre-treated with MG132
[12] = no reference number printed in the cell, footnote: IC50s are obtained from the references indicated

- ΔTm50 [1]: 6.76 °C
- ΔTm50 [2]: 5.48 °C
Molecule: Staplin (peptide)

- thermal shift (ΔTm50) [1]: 1.52 °C
Molecule: ATSP-7041 (peptide)

- mean thermal shift in whole cell CETSA as percent of that in cell lysate CETSA [3]: 40%
- ΔΔTm50 (whole cell CETSA against cell lysate CETSA) [3]: 4.01 °C
- mean thermal shift in whole cell CETSA as percent of that in cell lysate CETSA [4]: 33%
- ΔΔTm50 (whole cell CETSA against cell lysate CETSA) [4]: 3.58 °C
- ΔTm50 [1]: 6.58 °C
- ΔTm50 [2]: 5.44 °C
Molecule: Staplin-2 (peptide)

- decrease in thermal shift against unlabelled ATSP-7041 [2]: 0.4 °C
Molecule: FAM-labelled ATSP-7041 (peptide)

Molecule: Ac-^1LTFXrEYWAQ(Cba)XSSAA^14-NH2 (sidechain bridge or staple) [ATSP-7041, reference compound]
- p53 activation measured by β-galactosidase activity with increasing concentrations [5]: correspondingly increasing p53 activity and plateaued off at maxima
- IC50 (Mdm4 [6]): 2310 nM

- ΔΔTm50 (±95% CI) Mdm2, lysate versus whole cell (Mdm2 [8]; Fig. 3b, whole cells 25 μM): 4.01 °C
- mean thermal shift from the whole cell CETSA as % of the mean thermal shift for the cell lysate CETSA, Mdm2 (Mdm2 [8]; whole cells 25 μM): 40%
- ΔΔTm50 (±95% CI) Mdm4, lysate versus whole cell (Mdm4 [9]; Fig. 3b): 3.58 °C
- mean thermal shift from the whole cell CETSA as % of the mean thermal shift for the cell lysate CETSA, Mdm4 (Mdm4 [9]): 33%
- Mdm2: ΔTm50 (±95% CI) (Mdm2 [10]; versus control): 6.58 °C
- Mdm4: ΔTm50 (±95% CI) (Mdm4 [11]; Fig. 1b, 10 μM in 5 mg/ml AML2 cell lysates, versus control, three independent replicates): 5.44 °C
Molecule: Ac-^1TSFXrEYW(6Cl)WALLXs^11-NH2 (sidechain bridge or staple) [Staplin-2]
- p53 activation measured by β-galactosidase activity with increasing concentrations [5]: correspondingly increasing p53 activity and plateaued off at maxima
- IC50 (Mdm2 [7]): 320 ± 20 nM
- IC50 (Mdm4 [6]): 3490 ± 630 nM

- thermal shift less than that of unlabelled Staplin-2 [1]: 2.71 °C
- thermal shift less than that of unlabelled Staplin-2 [2]: 2.99 °C
Molecule: FAM-labelled Staplin-2 (peptide)

- ΔTm at 10 µM (Mdm2 [10]; human, 0.25 h, versus control, read-out: Mdm2: ΔTm50 (±95% CI)): 6.76 °C
- ΔTm at 10 µM (Mdm4 [11]; human, 0.25 h, Fig. 1b, 10 μM in 5 mg/ml AML2 cell lysates, versus control, three independent replicates, read-out: Mdm4: ΔTm50 (±95% CI)): 5.48 °C
Molecule: CC(=O)N[C@H](C(=O)N[C@@H](CO)C(=O)N[C@@H](Cc1ccccc1)C(=O)N[C@]1(C)CCCCCCC=CCCC[C@@](C)(C(N)=O)NC(=O)[C@H](CC(C)C)NC(=O)[C@H](CC(C)C)NC(=O)[C@H](C)NC(=O)[C@H](Cc2c[nH]c3ccccc23)NC(=O)[C@H](Cc2ccc(O)cc2)NC(=O)[C@H](CCC(=O)O)NC1=O)[C@@H](C)O [Staplin]
- IC50 (Mdm4 [6]): 660 ± 60 nM

Molecule: COc1ccc(C2=N[C@@H](c3ccc(Cl)cc3)[C@@H](c3ccc(Cl)cc3)N2C(=O)N2CCNC(=O)C2)c(OC(C)C)c1 [Nutlin-3, nutlin-3, reference compound]
- Mdm2 ΔΔTm50 (±95% CI), lysate versus whole cell (Mdm2 [8]; Fig. 3a, 10 μM): 0.24 ± 1.42 °C
- Mdm2: Tm50 (mean +95% CI −95% CI) (Mdm2 [10]; 15 min room temperature, heated 2 min, Western blot): 55.9 °C

- Mdm4 ΔTm50 (±95% CI) (Mdm4 [11]; Fig. 2c, labelled and unlabelled stapled peptides, AML2 cell extracts, 15 min): 1.11 (1.65) °C
Molecule: CC(C)C[C@H](NC(=O)c1ccc2c(c1)C(=O)OC21c2ccc(O)cc2Oc2cc(O)ccc21)C(=O)N[C@H](C(=O)N[C@@H](Cc1ccccc1)C(=O)N[C@]1(C)CCCCCCC=CCCC[C@@](C)(C(=O)N[C@@H](CO)C(=O)N[C@@H](C)C(=O)N[C@@H](C)C(N)=O)NC(=O)[C@H](CC2CCC2)NC(=O)[C@H](CCC(N)=O)NC(=O)[C@H](C)NC(=O)[C@H](Cc2c[nH]c3ccccc23)NC(=O)[C@H](Cc2ccc(O)cc2)NC(=O)[C@H](CCC(=O)O)NC1=O)[C@@H](C)O [ATSP-7041 ^FAM]

Molecule: CC(=O)N[C@H](C(=O)N[C@@H](CO)C(=O)N[C@@H](C)C(=O)N[C@]1(C)CCCCCCC=CCCC[C@@](C)(C(N)=O)NC(=O)[C@H](C)NC(=O)[C@H](CC(C)C)NC(=O)[C@H](C)NC(=O)[C@H](C)NC(=O)[C@H](Cc2ccc(O)cc2)NC(=O)[C@H](CCC(=O)O)NC1=O)[C@@H](C)O [Staplin-Control, reference compound] (Ac-TSA[R8]EYAALA[S5]-NH2; staple 4-11)
- IC50 (Mdm2 [7]; [12]): > 10000 nM
- IC50 (Mdm4 [6]; [12]): > 10000 nM
